Counter-ions that a name gives are not always drawn.

What is called IC50 is the concentration at which inhibition is half-maximal.

Sequence of MK-2 (P49137 whole entry, species assumed): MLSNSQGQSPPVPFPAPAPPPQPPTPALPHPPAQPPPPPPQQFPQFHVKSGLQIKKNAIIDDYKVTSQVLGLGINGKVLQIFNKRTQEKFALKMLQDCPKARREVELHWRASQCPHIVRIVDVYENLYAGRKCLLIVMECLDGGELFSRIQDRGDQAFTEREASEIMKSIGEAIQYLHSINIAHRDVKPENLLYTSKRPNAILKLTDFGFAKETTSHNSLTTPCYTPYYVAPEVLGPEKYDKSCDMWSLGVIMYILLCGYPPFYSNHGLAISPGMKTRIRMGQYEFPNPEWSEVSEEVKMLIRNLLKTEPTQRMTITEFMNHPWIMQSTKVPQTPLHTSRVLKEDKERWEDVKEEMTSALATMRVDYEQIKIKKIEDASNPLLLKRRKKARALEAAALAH

This experiment has as its target MK-2 (Homo sapiens, UniProt P49137). Description: Determination of MK-2 IC50 (anion exchange resin capture assay, HSP-peptide phosphorylation). Type of experiment: biochemical. The settings on record: read-out: MK-2 Avg. IC50.
Protocol: The phosphorylation of HSP-peptide ([sequence]) by MAPKAPK2 was measured using an anion exchange resin capture assay method. […] The reaction was terminated and [γ^33P]ATP was removed from solution by the addition of 150 μl of AG 1×8 ion exchange resin in 900 mM sodium formate pH 3.0. A 50 μl aliquot of head volume was removed from the quenched reaction mixture and added to a 96-well plate, 150 μl of Microscint-40 (Packard) was added and the amount of phosphorylated-peptide was determined. Allow the Microscint to sit in the plates for 60 minutes prior to counting.
Compounds are evaluated as potential inhibitors of the MK2 kinase by measuring their effects on MK2 phosphorylation of the peptide substrate. Compounds may be screened initially at two concentrations prior to determination of IC50 values. Screening results are expressed as percent inhibition at the concentrations of compound tested. For IC50 value determinations, compounds are tested at six concentrations in ten-fold serial dilutions with each concentration tested in triplicate. Results are expressed as IC50 values in micromolar. The assay is performed at a final concentration of 2% DMSO.
Compounds are evaluated as potential inhibitors of the MK-2 kinase by measuring their effects on MK-2 phosphorylation of the peptide substrate. Compounds may be screened initially at two concentrations prior to determination of IC50 values. Screening results are expressed as percent inhibition at the concentrations of compound tested. For IC50 value determinations, compounds are tested at six concentrations in ten-fold serial dilutions with each concentration tested in triplicate. Results are expressed as IC50 values in micromolar. The assay is performed at a final concentration of 2% DMSO.
As for `O=C1NCCCn2nc(-c3ccnc(-n4cccc4)c3)cc21` [Example 123, 2-[2-(1H-pyrrol-1-yl)pyridin-4-yl]-5,6,7,8-tetrahydro-4H-pyrazolo[1,5-a][1,4]diazepin-4-one trifluoroacetate], the IC50 amounted to 10600 nM.
Turning to `O=C1NCCCn2nc(-c3ccncc3)cc21` [Example 122, 2-pyridin-4-yl-5,6,7,8-tetrahydro-4H-pyrazolo[1,5-a][1,4]diazepin-4-one], the IC50 came to 10100 nM.
Consider `O=C1NCCn2nc(-c3ccnc(-c4ccc5sccc5c4)c3)cc21` [Example 56, trifluoroacetate], for which the IC50 came out at 965 nM.
Regarding `O=C1NCCn2nc(-c3ccnc(-c4ccc5c(c4)CCCN5)c3)cc21` [Example 49, dihydrochloride], the IC50 came to 835 nM.
As for `CN(C)Cc1ccc(-c2cc(-c3cc4n(n3)CCNC4=O)ccn2)cc1` [Example 112, 2-(2-{4-[(dimethylamino)methyl]phenyl}pyridin-4-yl)-6,7-dihydropyrazolo[1,5-a]pyrazin-4(5H)-one trifluoroacetate], the IC50 is 5350 nM.
Under `O=C1NCCCn2nc(-c3ccnc(Cl)c3)cc21` [Example 145, 2-(2-chloropyridin-4-yl)-5,6,7,8-tetrahydro-4H-pyrazolo[1,5-a][1,4]diazepin-4-one] stands 80400 nM.
Regarding `O=C1NCCn2nc(-c3ccnc(-c4nccs4)c3)cc21` [Example 67, trifluoroacetate], the IC50 stood at 1290 nM.
With `O=C1NCCn2nc(-c3ccnc(-c4ccc5ncccc5c4)c3)cc21` [Example 23, dihydrochloride], the IC50 was found to be 298 nM.
Regarding `CN(C)CCc1ccc(-c2cc(-c3cc4n(n3)CCNC4=O)ccn2)cc1` [Example 80, hydrochloride], the IC50 worked out at 1980 nM.
Regarding `O=C1NCCCn2nc(-c3ccnc(-n4ccnc4)c3)cc21` [Example 113, 2-[2-(1H-imidazol-1-yl)pyridin-4-yl]-5,6,7,8-tetrahydro-4H-pyrazolo[1,5-a][1,4]diazepin-4-one hydrochloride], the IC50 was determined as 5660 nM.
As to `O=C1NCCn2nc(-c3ccnc(-c4cccc(F)c4)c3)cc21` [Example 33, hydrochloride], the IC50 is 505 nM.
Under `COc1ccc(-c2cc(-c3cc(C(=O)O)n(CCCN)n3)ccn2)cc1` [Example 15, trifluoroacetate] stands 196 nM; under `CN(C)Cc1cccc(-c2cc(-c3cc4n(n3)CCNC4=O)ccn2)c1` [Example 128, 2-(2-{3-[(dimethylamino)methyl]phenyl}pyridin-4-yl)-6,7-dihydropyrazolo[1,5-a]pyrazin-4(5H)-one trifluoroacetate], 15400 nM; under `O=C1NCCCn2nc(-c3ccnc(-n4ccnn4)c3)cc21` [Example 121, 2-[2-(1H-1,2,3-triazol-1-yl)pyridin-4-yl]-5,6,7,8-tetrahydro-4H-pyrazolo[1,5-a][1,4]diazepin-4-one hydrochloride], 9050 nM.
With `O=C1NCCn2nc(-c3ccnc(Cl)c3)cc21` [Example 140, 2-(2-chloropyridin-4-yl)-6,7-dihydropyrazolo[1,5-a]pyrazin-4(5H)-one], the IC50 is 44800 nM.
Under `NCCn1nc(-c2ccnc(-c3cccc([N+](=O)[O-])c3)c2)cc1C(=O)O` [Example 9] stands 109 nM; under `O=C1NCCCn2nc(-c3ccnc(-c4ccc(O)cc4)c3)cc21` [Example 71, hydrochloride], 1370 nM; under `NCc1cccc(-c2cc(-c3cc4n(n3)CCNC4=O)ccn2)c1` [Example 97, trifluoroacetate], 3250 nM.
As to `O=C1NCCn2nc(-c3ccnc(-c4cccc(O)c4)c3)cc21` [Example 35, trifluoroacetate], the IC50 stood at 520 nM.
`COc1ccc(-c2cc(C(=O)O)n(CCCNC(=O)OC(C)(C)C)n2)cc1` [Example 151, 1-{3-[(tert-butoxycarbonyl)amino]propyl}-3-(4-methoxyphenyl)-1H-pyrazole-5-carboxylic acid]: the IC50 stood at 155000 nM.
Consider `NCCCn1nc(-c2ccnc(-c3cnc4ccccc4c3)c2)cc1C(N)=O` [Example 124, 1-(3-aminopropyl)-3-(2-quinolin-3-ylpyridin-4-yl)-1H-pyrazole-5-carboxamide dihydrochloride], for which the IC50 is 10700 nM.
For `O=C1NCCCn2nc(-c3ccnc(-n4cccn4)c3)cc21` [Example 130, 2-[2-(1H-pyrazol-1-yl)pyridin-4-yl]-5,6,7,8-tetrahydro-4H-pyrazolo[1,5-a][1,4]diazepin-4-one hydrochloride], the IC50 is 16200 nM.
For `O=C1NCCn2nc(-c3ccnc(-c4cccnc4)c3)cc21` [Example 41, dihydrochloride], the IC50 amounted to 586 nM.
With `O=C1NCCn2nc(-c3ccnc(-c4cccc(OCc5ccccc5)c4)c3)cc21` [Example 129, 2-{2-[3-(benzyloxy)phenyl]pyridin-4-yl}-6,7-dihydropyrazolo[1,5-a]pyrazin-4(5H)-one], the IC50 is 15500 nM.
Regarding `Nc1cccc(-c2cc(-c3cc4n(n3)CCNC4=O)ccn2)c1` [Example 68], the IC50 is 1300 nM.
Under `NCCCn1nc(-c2ccnc(-c3cccc([N+](=O)[O-])c3)c2)cc1C(=O)O` [Example 2, dihydrochloride] stands 39.7 nM; under `O=C1NCCn2nc(-c3ccnc(-c4cccc(OCCN5CCOCC5)c4)c3)cc21` [Example 116, 2-{2-[3-(2-morpholin-4-ylethoxy)phenyl]pyridin-4-yl}-6,7-dihydropyrazolo[1,5-a]pyrazin-4(5H)-one], 6730 nM.
Take `O=C1NCCCn2nc(-c3ccnc(-c4ccc(CO)cc4)c3)cc21` [Example 79, 2-{2-[4-(hydroxymethyl)phenyl]pyridin-4-yl}-5,6,7,8-tetrahydro-4H-pyrazolo[1,5-a][1,4]diazepin-4-one]: the IC50 was 1750 nM.
Then `O=C1NCCn2nc(-c3ccnc(/C=C/c4ccccc4)c3)cc21` [Example 28], with 371 nM.
For `COc1ccc(-c2cc(-c3cc4n(n3)CCNC4=O)ccn2)cc1` [Example 26, dihydrochloride], the IC50 was 318 nM.

The values are drawn from patent US20040152739A1, “Acyclic pyrazole compounds for the inhibition of mitogen activated protein kinase-activated protein kinase-2” (priority 2002, published 2004).
